These are literature values, as cited in patent US6586005B1, “Extended release formulation of etodolac” (Ranbaxy Laboratories Limited, priority 1999, dated 2003).

Regarding `CCc1cccc2c3c([nH]c12)C(CC)(CC(=O)O)OCC3` (centres unmarked) [Etodolac, 1,8-diethyl-1,3,4,9-tetrahydropyrano [3,4-b] indole-1-acetic acid], the “Difference between solubility at pH 5 to pH 7” value (pH 5 versus pH 7) is listed as “thirty”. Further, where the note is “pH independent below pH 3”, the Aqueous solubility result was “very low aqueous solubility”.
